Read-outs that look alike come from different tables or passages of the source.
How the values were obtained:
recombinant human CB1 = target: T1, recombinant human CB1 (Homo sapiens, UniProt P21554); experiment: biochemical; assay type: binding
T1 construct: expressed in transfected cells; host or cells: Sf9 cells

recombinant human CB2 = target: T2, recombinant human CB2 (Homo sapiens, UniProt P34972); experiment: Competitive receptor binding against tritium labelled CP55,940, CB2
T2 construct: expressed in transfected cells; host or cells: Sf9 cells
T2 sequence (P34972 whole entry): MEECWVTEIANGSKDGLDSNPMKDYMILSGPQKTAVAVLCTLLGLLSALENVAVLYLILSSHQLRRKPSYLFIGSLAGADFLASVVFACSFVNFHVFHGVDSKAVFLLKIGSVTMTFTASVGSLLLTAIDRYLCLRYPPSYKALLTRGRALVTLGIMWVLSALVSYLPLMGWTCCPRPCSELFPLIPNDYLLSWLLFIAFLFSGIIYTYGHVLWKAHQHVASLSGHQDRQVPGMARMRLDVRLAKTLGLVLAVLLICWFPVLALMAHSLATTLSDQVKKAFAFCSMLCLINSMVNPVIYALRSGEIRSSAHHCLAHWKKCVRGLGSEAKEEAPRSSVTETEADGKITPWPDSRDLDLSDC

[1] = tested on: mRNA coding for TNF-alpha; experiment: TNF-alpha mRNA level (RT-PCR) in PHA-stimulated PBMC; assay type: cell-based; conditions: PBMC stimulated by PHA, incubation 4 days; relative to β-actine
[2] = tested on: mRNA coding for interleukin-10 (IL-10); experiment: IL-10 mRNA level (RT-PCR) in PHA-stimulated PBMC; assay type: cell-based; conditions: PBMC stimulated by PHA, incubation 4 days; relative to β-actine
[3] = tested on: Experimental Autoimmune Encephalomyelitis; experiment: Mouse model for Experimental Autoimmune Encephalomyelitis; assay type: in vivo; conditions: SJL mice, day 0-20
Description: The effect of purified THC-acid and unheated cannabis extracts were tested in vivo in a mouse model for Experimental Autoimmune Encephalomyelitis.
Between day 0 and day 20 after onset of the disease the mice were treated daily with a specified oral dose of THC-acid or unheated extract according to the following scheme:
Group 1: vehicle (0.2 mL olive oil/day);
Group 2: 1 mg purified THC-acid in 0.2 mL olive oil/day;
Group 3: unheated cannabis extract in 0.2 mL olive oil containing 1 mg THC-acid/day.
1: mild perivascular accumulation
2: mild perivascular accumulation, multi-focal
3: perivascular accumulation, multiple cell layers, multi-focal.

T1 sequence (P21554 whole entry): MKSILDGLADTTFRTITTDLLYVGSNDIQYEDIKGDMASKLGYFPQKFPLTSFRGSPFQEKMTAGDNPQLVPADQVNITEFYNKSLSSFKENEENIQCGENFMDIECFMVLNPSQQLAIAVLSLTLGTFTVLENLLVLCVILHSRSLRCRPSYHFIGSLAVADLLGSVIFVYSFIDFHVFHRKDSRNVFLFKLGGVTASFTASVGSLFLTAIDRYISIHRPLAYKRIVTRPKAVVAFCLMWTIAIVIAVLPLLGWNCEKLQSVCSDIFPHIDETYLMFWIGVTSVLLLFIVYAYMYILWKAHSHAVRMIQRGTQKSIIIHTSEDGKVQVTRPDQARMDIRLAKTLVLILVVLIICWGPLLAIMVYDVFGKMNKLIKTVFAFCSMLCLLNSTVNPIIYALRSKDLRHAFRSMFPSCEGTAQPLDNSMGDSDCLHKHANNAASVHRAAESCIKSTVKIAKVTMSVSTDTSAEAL

Row | Compound | Kd (recombinant human CB1) [nM] | Kd (recombinant human CB2) [nM] | Kd (recombinant human CB1; purified components, Sf9 cells, read-out: Kd CB1) [nM] | level of the pro-inflammatory cytokine TNFα (mRNA) [1] | level of the anti-inflammatory cytokine IL-10 (mRNA) [2] | Kd (recombinant human CB2; purified components, Sf9 cells, read-out: Kd CB2) [nM] | number of inflammatory cells in the brain stem compared to vehicle ([3]; 1 mg THC-acid/day oral in olive oil, sacrificed after 42 days) | clinical score ([3]; 1 mg THC-acid/day oral, FIG. 4)
1 | CCCCCc1cc(O)c2c(c1)OC(C)(C)c1ccc(C)cc1-2 [CBN*, cannabinol, reference compound] | 36 | 17 |  |  |  |  |  | 
2 | CCCCCc1cc2c(c(O)c1C(=O)O)C1C=C(C)CCC1C(C)(C)O2 (centres unmarked) [THC-A, Δ^9-tetrahydrocannabinolic acid] |  |  | > 1000 | decrease | increase | > 1000 | reduced the number of inflammatory cells in the brain stem significantly | improved the clinical score significantly

Reference: patent US7807711B2, “Medicinal acidic cannabinoids” (priority 2004, dated 2010)
